Reference: publication PMC4919791, “Effect of curcumin analogs onα-synuclein aggregation and cytotoxicity” (Scientific Reports, 2016)

Legend:
α-Syn oligomers = target: T1, α-Syn oligomers (Homo sapiens, UniProt P37840); assay: Binding affinity to α-Syn oligomers by curcumin analog fluorescence; conditions: for Kd: compound fluorescence, read-out: dissociation constant (Kd) for α-Syn oligomers; for affinity to oligomers compared to fibrils: comparison of Kd for fibrils and oligomers
T1 construct: made in house; host or cells: Escherichia coli BL21
Experimental: Immediately after incubation, fluorescence study was performed (for the excitation and emission ranges for each compounds, see Fig. S1). Experiments were performed using FluoroMax-4 spectrofluorometer (HORIBA JobinYvon) with excitation and emission slit widths of 5 nm.
The data were analyzed in Graphpad Prism software according to established method as used previously.

[1] = Stability of curcumin analogs by time-dependent intrinsic fluorescence; type: physicochemical; conditions: 20 mM MES buffer pH 6.0, 0.01% NaN3, 37 °C
Experimental: 1μl of this DMSO-stock solution was transferred to 2 ml microfuge tube and 1 ml of 20 mM MES buffer (pH 6.0, 0.01% NaN3) was added to it and mixed immediately by vortexing. These solutions were incubated at 37 °C and their respective fluorescence was taken at certain time intervals. The fluorescence was monitored by placing the 200 μl of the incubated solution in 0.1 cm path-length quartz cuvette (Hellma, Forest Hills, NY) and the spectra were acquired by using FluoroMax-4 spectrofluorometer (HORIBA JobinYvon) instrument with excitation and emission slit widths of 5 nm and 10 nm respectively. The fluorescence intensity maxima for each sample were plotted against time of incubation and fitted in exponential decay 1 in the Origin 8.0 software according to manufacture’s protocol (Fig. 2A).

preformed α-Syn fibrils [2] = target: T2, preformed α-Syn fibrils (Homo sapiens, UniProt P37840); assay: LDH cytotoxicity assay of preformed α-Syn fibrils incubated with curcumin analogs; type: cell-based; conditions: fibrils incubated with analog 48 h; SH-SY5Y cells
T2 construct: made in house; host or cells: Escherichia coli BL21
Experimental: The concentration of the fibrils was determined by subtraction of supernatant concentration from the original concentration of α-Syn kept for fibrillation.
The percent LDH release was plotted as difference in the absorbance value of 490 nm and 690 nm, considering 100% release for the TritonX-100 treated cells.

preformed α-Syn fibrils [3] = target: T2, preformed α-Syn fibrils; assay: Nile red binding assay on preformed α-Syn fibrils; type: biochemical; conditions: fibrils incubated with analog 48 h
Experimental: Stock solution of NR was prepared in DMSO (1 mM). […] Similar experimental protocol was used for NR binding to oligomers. FluoroMax-4 spectrofluorometer (HORIBA JobinYvon) was used with excitation and emission slit widths of 5 nm. The maximum NR fluorescence obtained at ~630 nm was used for plotting bar diagrams.

α-Syn [4] = target: T3, α-Syn (Homo sapiens, UniProt P37840); assay: α-Syn aggregation kinetics by compound fluorescence; type: biochemical; conditions: in presence of analog
T3 construct: made in house; host or cells: Escherichia coli BL21
Experimental: ThT fluorescence was used to monitor the aggregation kinetics of α-Syn only as a control.
(§1) Subsequently, we examined the effect of these analogs on α-Syn oligomerization by time dependent static light scattering experiment. […] After aggregation, TEM study was done to determine the effects of these analogs on the morphology of the resultant aggregates.
The α-Syn amyloid aggregation was started with LMW α-Syn of concentration ~300 μM in 1.5 ml microfuge tube in 20 mM MES buffer, pH 6.0, with 0.01% NaN3. […] The microfuge tubes with protein solutions were placed into Echo-Therm model RT11 vertical rotor (Torrey Pines Scientific, USA) with a speed of 50 rpm, at 37 °C inside an incubator.
The experiments were performed in FluoroMax-4 spectrofluorometer (HORIBA JobinYvon) with excitation and emission slit widths of 5 nm. Fluorescence was done in 20 mM MES buffer (pH 6.0, 0.01% NaN3).

α-Syn [5] = target: T3, α-Syn; assay: TEM of α-Syn aggregates formed in presence of analogs; type: biochemical
Experimental: as §1
(§2) The samples were then washed thrice with autoclaved MQ. The samples were then stained with 10 μl of uranyl formate 1% (w/v) and incubated in dark for 10 min. The EM image of each sample was acquired at 120 kV with magnifications in the range of 26,000X and 43,000X using a transmission electron microscope (TECNAI12 D312 FEI, Netherlands).

[6] = target: T4, preformed α-Syn amyloid fibrils (Homo sapiens, UniProt P37840); assay: TEM of preformed α-Syn fibrils with analogs; type: biochemical; conditions: after 48 h incubation with analog
T4 construct: made in house; host or cells: Escherichia coli BL21
Experimental: as §2

α-Syn fibrils = target: T5, α-Syn fibrils (Homo sapiens, UniProt P37840); assay: Binding affinity to α-Syn fibrils by curcumin analog fluorescence; conditions: for binding with preformed α-Syn fibrils: compound fluorescence
T5 construct: made in house; host or cells: Escherichia coli BL21
Experimental: To estimate the comparative binding affinity of curcumin analogs to the α-Syn fibrils and oligomers, curcumin fluorescence assay was performed for each analog. For binding study with fibrils, 10 μM of α-Syn fibrils were incubated in presence of varying concentration of curcumin and its analogs (0.25 μM to 30 μM) for 30 min at RT in dark and then fluorescence spectra were recorded. The normalized fluorescence intensity of different concentrations of curcumin/analogs at their corresponding λmax was plotted to obtain their respective saturation plots (Figs 6A and S7). From the saturation plot, dissociation constant (Kd) was calculated (see method section).
The binding of curcumin/analogs to α-Syn fibrils were determined based on change in fluorescence intensity. For this study, 10 μM α-Syn fibrils were incubated in presence and absence of varying concentration of curcumin/analogs (0.25 μM to 30 μM) for 30 min at RT in dark. Immediately after incubation, fluorescence study was performed (for the excitation and emission ranges for each compounds, see Fig. S1). Experiments were performed using FluoroMax-4 spectrofluorometer (HORIBA JobinYvon) with excitation and emission slit widths of 5 nm. The maximum fluorescence intensity for curcumin/analogs was normalized with respect to that of the lowest concentration of each analog. The normalized fluorescence intensity was plotted against increasing concentration of curcumin/analogs and the dissociation constant was determined using the equation
where, “ΔF” is the change in the fluorescence intensity of curcumin/analogs, “ΔFmax” is the change in the fluorescence intensity at saturation point and “L”is the concentration of curcumin/analogs. The data were analyzed in Graphpad Prism software according to established method as used previously. Similarly, the dissociation constant of curcumin and its analogs with preformed α-Syn oligomers and monomers (obtained from SEC) were also determined.

| Kd (α-Syn oligomers) [µM] | relative stability compared with curcumin (slope of normalized fluorescence versus time) [1] | effect on rate/kinetics of α-Syn aggregation (α-Syn [4]) | morphology of α-Syn aggregates formed in presence of analog (TEM) (α-Syn [5]) | fibril morphology/thickness of preformed α-Syn fibrils (TEM, words) [6] | Structure (SMILES) | effect on cell death by preformed α-Syn fibrils, LDH (preformed α-Syn fibrils [2]) | Nile red fluorescence of preformed α-Syn fibrils (exposed hydrophobic surface) (preformed α-Syn fibrils [3]) | Kd (α-Syn fibrils; 10 μM fibrils, 0.25–30 μM analog, 30 min RT, read-out: dissociation constant (Kd) for α-Syn fibrils) [µM] | binding with preformed α-Syn fibrils (α-Syn fibrils) | average fibril thickness of fibrils formed in presence of analog (α-Syn [5]) | affinity to oligomers compared to fibrils (α-Syn oligomers) |
| --- | --- | --- | --- | --- | --- | --- | --- | --- | --- | --- | --- |
| 16.5 ± 2.63 | – | – | – | – | COc1ccc(/C=C/C(=O)CC(=O)/C=C/c2ccc(OC)cc2OC)c(OC)c1 [C4] | – | – | – | – | – | – |
| – | relatively more stable than curcumin | increases the rate of α-Syn aggregation | fibrils with shorter length | – | COc1ccc(OC)c(/C=C/C(=O)CC(=O)/C=C/c2cc(OC)ccc2OC)c1 [C5] | decrease in cell death | less NR fluorescence for fibrils as compared to curcumin | – | – | – | – |
| 1.46 ± 0.2 | relatively more stable than curcumin | less significant effect | – | thinner fibrils | O=C(/C=C/c1cccs1)CC(=O)/C=C/c1cccs1 [C8] | decrease in cell death | – | – | – | – | higher binding affinity to oligomers as compared to fibrils |
| – | relatively more stable than curcumin | less significant effect | fibrils with shorter length | thinner fibrils | O=C(/C=C/c1cccnc1)CC(=O)/C=C/c1cccnc1 [C9] | – | – | – | did not show any significant binding | – | – |
| – | relatively more stable than curcumin | – | fibrils with shorter length | – | COc1ccc(/C=C/C(=O)CC(=O)/C=C/c2ccc(OC)cc2)cc1 [C10] | decrease in cell death | – | – | – | – | higher binding affinity to oligomers as compared to fibrils |

| Structure (SMILES) | Kd (α-Syn oligomers) [µM] | relative stability compared with curcumin (slope of normalized fluorescence versus time) [1] | effect on rate/kinetics of α-Syn aggregation (α-Syn [4]) | morphology of α-Syn aggregates formed in presence of analog (TEM) (α-Syn [5]) | fibril morphology/thickness of preformed α-Syn fibrils (TEM, words) [6] | effect on cell death by preformed α-Syn fibrils, LDH (preformed α-Syn fibrils [2]) | Nile red fluorescence of preformed α-Syn fibrils (exposed hydrophobic surface) (preformed α-Syn fibrils [3]) | Kd (α-Syn fibrils; 10 μM fibrils, 0.25–30 μM analog, 30 min RT, read-out: dissociation constant (Kd) for α-Syn fibrils) [µM] | binding with preformed α-Syn fibrils (α-Syn fibrils) | average fibril thickness of fibrils formed in presence of analog (α-Syn [5]) | affinity to oligomers compared to fibrils (α-Syn oligomers) |
| --- | --- | --- | --- | --- | --- | --- | --- | --- | --- | --- | --- |
| O=C(/C=C/c1ccccc1)CC(=O)/C=C/c1ccccc1 [C7] | – | relatively more stable than curcumin | – | fibrils with shorter length | thinner fibrils | decrease in cell death | – | 13.2 ± 2.29 | very weak binding | more in comparison to fibrils formed in presence of other analogs | – |
